In one test the target is T1, EGFR (L858R T790M C797S) (Homo sapiens, UniProt P00533, C797S/L858R/T790M).
T1 construct: purchased SignalChem E10-122VG
Briefly: Biochemical EGFR inhibition assay (Caliper mobility shift), EGFR LRTMCS. Conditions: LRTMCS (PH) IC50 (nM) @ 1 mM ATP (Num), EGFR LRTMCS mutant. Here is the method: Reactions proceeded until between 10% to 20% total peptides were phosphorylated at room temperature (25° C.) and were terminated with 35 mM 2,2′,2″,2′″-(ethane-1,2-diyldinitrilo)tetraacetic acid (EDTA). Product was detected using the Caliper mobility shift detection method where the phosphorylated peptide (product) and substrate were electrophoretically separated and measured. Percent activity was plotted against log concentration of compound and points to generate an apparent IC50.

Test [1] has as its target T2, intracellular phosphorylation of EGFR in NCI-H1975 cell line that harbors the EGFR L858R T790M mutations (Homo sapiens, UniProt P00533, L858R/T790M).
T2 construct: NCI-H1975 cell line that harbors the EGFR L858R T790M mutations (ATCC, CRL-5908); host or cells: NCI-H1975
Briefly: NCI-H1975 pEGFR AlphaLISA assay. It is filed as cell-based. Conditions: NCI-H1975 cells (EGFR L858R T790M), p-EGFR (Tyr1068), 4-5 hours incubation; read-out: Ext pEGFR H1975 GMean IC50 (nM) Protocol: @Pharmaron AlphaLISA (Num). Here is the method: On the next day, the test compounds and DMSO control were added into H1975 cell plate followed by incubation at 37C/5% CO2 for 4-5 hours. […] Then 5 μL of a donor bead mix was added to each well followed by overnight incubation at room temperature in dark. On the next day, the plate was read at a compatible plate reader to obtain pEGFR signal. Percent of pEGFR inhibition was plotted against log concentration of compounds to generate IC50 values.
A general note: Alpha assays give light when donor and acceptor beads are brought close together.

Each structure is given as a SMILES string.

T1 sequence (P00533 25-1210 T790M/C797S/L858R): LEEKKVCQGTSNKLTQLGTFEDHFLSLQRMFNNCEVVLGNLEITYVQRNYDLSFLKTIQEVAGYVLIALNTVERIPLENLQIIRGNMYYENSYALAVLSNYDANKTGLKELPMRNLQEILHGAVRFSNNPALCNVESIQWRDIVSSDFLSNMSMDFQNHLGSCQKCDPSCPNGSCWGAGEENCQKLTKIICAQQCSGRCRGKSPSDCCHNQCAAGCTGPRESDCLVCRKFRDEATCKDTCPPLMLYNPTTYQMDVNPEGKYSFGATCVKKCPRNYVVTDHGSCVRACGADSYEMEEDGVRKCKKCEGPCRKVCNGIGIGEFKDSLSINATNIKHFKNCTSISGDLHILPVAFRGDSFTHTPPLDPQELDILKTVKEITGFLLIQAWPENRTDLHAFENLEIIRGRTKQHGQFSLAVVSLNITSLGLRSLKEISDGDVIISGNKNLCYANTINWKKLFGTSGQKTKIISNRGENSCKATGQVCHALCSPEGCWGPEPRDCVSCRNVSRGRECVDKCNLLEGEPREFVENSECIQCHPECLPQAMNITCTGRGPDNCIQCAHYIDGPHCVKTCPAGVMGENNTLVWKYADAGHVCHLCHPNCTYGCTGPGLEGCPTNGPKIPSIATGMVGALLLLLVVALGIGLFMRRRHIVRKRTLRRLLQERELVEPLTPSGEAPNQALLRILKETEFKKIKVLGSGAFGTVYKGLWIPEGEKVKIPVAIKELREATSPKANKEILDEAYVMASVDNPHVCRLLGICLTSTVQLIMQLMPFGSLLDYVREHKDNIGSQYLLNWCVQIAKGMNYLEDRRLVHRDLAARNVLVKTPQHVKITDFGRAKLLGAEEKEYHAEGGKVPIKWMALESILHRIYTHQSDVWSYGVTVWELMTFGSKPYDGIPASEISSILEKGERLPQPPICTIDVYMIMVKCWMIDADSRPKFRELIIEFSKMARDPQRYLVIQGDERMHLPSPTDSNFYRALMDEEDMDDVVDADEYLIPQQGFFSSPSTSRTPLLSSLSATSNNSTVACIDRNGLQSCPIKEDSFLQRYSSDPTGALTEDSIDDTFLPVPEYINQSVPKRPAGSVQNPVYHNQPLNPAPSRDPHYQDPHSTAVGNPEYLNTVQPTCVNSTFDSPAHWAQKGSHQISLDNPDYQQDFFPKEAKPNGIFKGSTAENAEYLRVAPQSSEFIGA
T2 sequence (P00533 25-1210 T790M/L858R): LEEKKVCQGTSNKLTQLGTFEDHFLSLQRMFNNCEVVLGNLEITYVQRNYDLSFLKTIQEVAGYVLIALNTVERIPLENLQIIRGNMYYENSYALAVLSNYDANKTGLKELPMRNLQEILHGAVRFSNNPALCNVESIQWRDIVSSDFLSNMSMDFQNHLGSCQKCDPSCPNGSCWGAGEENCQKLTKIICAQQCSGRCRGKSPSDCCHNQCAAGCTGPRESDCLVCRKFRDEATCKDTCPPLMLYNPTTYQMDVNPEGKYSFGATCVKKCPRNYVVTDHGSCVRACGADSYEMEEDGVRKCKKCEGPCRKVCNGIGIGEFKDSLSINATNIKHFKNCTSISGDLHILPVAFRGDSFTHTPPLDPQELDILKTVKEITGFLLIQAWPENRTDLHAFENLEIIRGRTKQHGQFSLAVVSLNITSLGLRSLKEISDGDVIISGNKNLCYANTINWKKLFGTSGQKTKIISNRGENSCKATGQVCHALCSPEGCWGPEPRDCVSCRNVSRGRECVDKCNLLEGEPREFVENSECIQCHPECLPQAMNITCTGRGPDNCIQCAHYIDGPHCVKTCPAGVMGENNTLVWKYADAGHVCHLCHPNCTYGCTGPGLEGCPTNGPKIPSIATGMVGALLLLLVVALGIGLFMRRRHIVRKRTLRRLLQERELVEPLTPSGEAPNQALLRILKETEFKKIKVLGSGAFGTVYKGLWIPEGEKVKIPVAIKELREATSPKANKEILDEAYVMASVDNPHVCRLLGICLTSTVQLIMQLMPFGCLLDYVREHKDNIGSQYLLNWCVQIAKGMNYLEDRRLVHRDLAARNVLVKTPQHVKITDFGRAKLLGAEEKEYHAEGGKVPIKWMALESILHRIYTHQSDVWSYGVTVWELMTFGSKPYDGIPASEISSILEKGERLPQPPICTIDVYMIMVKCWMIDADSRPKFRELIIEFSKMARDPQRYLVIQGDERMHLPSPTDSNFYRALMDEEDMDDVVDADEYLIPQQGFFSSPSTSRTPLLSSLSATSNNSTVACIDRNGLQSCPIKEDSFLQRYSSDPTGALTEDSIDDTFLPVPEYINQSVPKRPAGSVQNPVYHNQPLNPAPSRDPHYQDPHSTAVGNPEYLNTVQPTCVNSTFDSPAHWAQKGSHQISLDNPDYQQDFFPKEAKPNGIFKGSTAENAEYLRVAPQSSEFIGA

`CC(C)c1cnc(N2CC3(CCS3(=O)=O)C2)c2cnc(Nc3ccnc(N4CC[C@@](C)(O)[C@@H](F)C4)n3)cc12` (single isomer, unassigned) [Example 174, 6-(6-((2-((3S,4R)-3-fluoro-4-hydroxy-4-methylpiperidin-1-yl)pyrimidin-4-yl)amino)-4-isopropyl-2,7-naphthyridin-1-yl)-1-thia-6-azaspiro[3.3]heptane 1,1-dioxide or 6-(6-((2-((3R,4S)-3-fluoro-4-hydroxy-4-methylpiperidin-1-yl)pyrimidin-4-yl)amino)-4-isopropyl-2,7-naphthyridin-1-yl)-1-thia-6-azaspiro[3.3]heptane 1,1-dioxide]: the IC50 (as a rule, the concentration that inhibits the measured activity by half) on EGFR (L858R T790M C797S) is 20 to 30 nM; in test [1] it was > 50 nM.

On to `CC(C)c1cnc(N2CC[C@]3(C2)CC3(F)F)c2cnc(Nc3ccnc(N4CC[C@@H](O)[C@@](C)(F)C4)n3)cc12` (single isomer, unassigned) [Example 214, (3S,4R)-1-(4-((8-((R)-1,1-difluoro-5-azaspiro[2.4]heptan-5-yl)-5-isopropyl-2,7-naphthyridin-3-yl)amino)pyrimidin-2-yl)-3-fluoro-3-methylpiperidin-4-ol or (3S,4R)-1-(4-((8-((S)-1,1-difluoro-5-azaspiro[2.4]heptan-5-yl)-5-isopropyl-2,7-naphthyridin-3-yl)amino)pyrimidin-2-yl)-3-fluoro-3-methylpiperidin-4-ol], for which the IC50 on EGFR (L858R T790M C797S) lay in the range of 30 to 100 nM; in test [1], 30 to 50 nM.

For the molecule `CC(C)c1cnc(N2CC[C@@H](CS(C)(=O)=O)C2)c2cnc(Nc3ccnc(N4CC[C@@H](O)[C@@](C)(F)C4)n3)cc12` (single isomer, unassigned) [Example 207, (3S,4R)-3-fluoro-1-(4-((5-isopropyl-8-((R)-3-((methylsulfonyl)methyl)pyrrolidin-1-yl)-2,7-naphthyridin-3-yl)amino)pyrimidin-2-yl)-3-methylpiperidin-4-ol or (3S,4R)-3-fluoro-1-(4-((5-isopropyl-8-((S)-3-((methylsulfonyl)methyl)pyrrolidin-1-yl)-2,7-naphthyridin-3-yl)amino)pyrimidin-2-yl)-3-methylpiperidin-4-ol], the IC50 on EGFR (L858R T790M C797S) was < 15 nM; in test [1], 20 to 30 nM.

With `CC(C)c1ccc(N2CC3(CCS3(=O)=O)C2)c2cnc(Nc3ccnc(N4CC[C@@H](O)[C@@](C)(F)C4)n3)cc12` [Example 35, 6-(3-((2-((3S,4R)-3-fluoro-4-hydroxy-3-methylpiperidin-1-yl)pyrimidin-4-yl)amino)-5-isopropylisoquinolin-8-yl)-1-thia-6-azaspiro[3.3]heptane 1,1-dioxide], the results for the IC50 (at EGFR (L858R T790M C797S); in test [1]) were < 15 nM and < 10 nM, respectively.

As to `CC(C)c1nnc(N2CC[C@@H]2C)c2cnc(Nc3ccnc(N4CC[C@@H](O)[C@@](C)(F)C4)n3)cc12` (single isomer, unassigned) [Example 206, (3S,4R)-3-fluoro-1-(4-((1-isopropyl-4-((S)-2-methylazetidin-1-yl)pyrido[3,4-d]pyridazin-7-yl)amino)pyrimidin-2-yl)-3-methylpiperidin-4-ol or (3S,4R)-3-fluoro-1-(4-((1-isopropyl-4-((S)-2-methylazetidin-1-yl)pyrido[3,4-d]pyridazin-7-yl)amino)pyrimidin-2-yl)-3-methylpiperidin-4-ol], the concentration for half-maximal inhibition (IC50) at EGFR (L858R T790M C797S) is < 15 nM; in test [1], 20 to 30 nM.

For the molecule `CC(C)c1nnc(N2CC[C@H]2C(F)F)c2cnc(Nc3ccnc(N4CC[C@@H](O)[C@@](C)(F)C4)n3)cc12` (single isomer, unassigned) [Example 205, (3S,4R)-1-(4-((4-((S)-2-(difluoromethyl)azetidin-1-yl)-1-isopropylpyrido[3,4-d]pyridazin-7-yl)amino)pyrimidin-2-yl)-3-fluoro-3-methylpiperidin-4-ol or (3S,4R)-1-(4-((4-((R)-2-(difluoromethyl)azetidin-1-yl)-1-isopropylpyrido[3,4-d]pyridazin-7-yl)amino)pyrimidin-2-yl)-3-fluoro-3-methylpiperidin-4-ol], the IC50 on EGFR (L858R T790M C797S) is 30 to 100 nM; in test [1] it was > 50 nM.

Regarding `CC(C)c1cnc(N2C[C@H](O)[C@H]2C)c2cnc(Nc3ccnc(N4CC[C@H](O)[C@H](F)C4)n3)cc12` [Example 143, (3R,4S)-3-fluoro-1-(4-((8-((2R,3S)-3-hydroxy-2-methylazetidin-1-yl)-5-isopropyl-2,7-naphthyridin-3-yl)amino)pyrimidin-2-yl)piperidin-4-ol], the IC50 on EGFR (L858R T790M C797S) was < 15 nM; in test [1] it was 10 to 20 nM.

As for `CC(C)c1cnc(N2C[C@H](O)[C@H]2C)c2cnc(Nc3ccnc(N4C[C@@H](F)[C@@H](O)C(C)(C)C4)n3)cc12` (single isomer, unassigned) [Example 145, (4S,5R)-5-fluoro-1-(4-((8-((2R,3S)-3-hydroxy-2-methylazetidin-1-yl)-5-isopropyl-2,7-naphthyridin-3-yl)amino)pyrimidin-2-yl)-3,3-dimethylpiperidin-4-ol or (4R,5S)-5-fluoro-1-(4-((8-((2R,3S)-3-hydroxy-2-methylazetidin-1-yl)-5-isopropyl-2,7-naphthyridin-3-yl)amino)pyrimidin-2-yl)-3,3-dimethylpiperidin-4-ol], the 50% inhibitory concentration (IC50) at EGFR (L858R T790M C797S) was < 15 nM; in test [1], 20 to 30 nM.

For `CC(C)c1cnc(N2CC(C#N)C2)c2cnc(Nc3ccnc(N4CC[C@@H](O)[C@@](C)(F)C4)n3)cc12` [Example 58, 1-(6-((2-((3S,4R)-3-fluoro-4-hydroxy-3-methylpiperidin-1-yl)pyrimidin-4-yl)amino)-4-isopropyl-2,7-naphthyridin-1-yl)azetidine-3-carbonitrile], the 50% inhibitory concentration (IC50) at EGFR (L858R T790M C797S) was < 15 nM; in test [1] it was 10 to 20 nM.

Turning to `CC(C)c1cnc(N2CC[C@H](O)[C@H]2C)c2cnc(Nc3ccnc(N4CC[C@@H](O)[C@@](C)(F)C4)n3)cc12` [Example 81, (3S,4R)-3-fluoro-1-(4-((8-((2R,3S)-3-hydroxy-2-methylpyrrolidin-1-yl)-5-isopropyl-2,7-naphthyridin-3-yl)amino)pyrimidin-2-yl)-3-methylpiperidin-4-ol], the IC50 at EGFR (L858R T790M C797S) is 15 to 20 nM; in test [1] it was > 50 nM.

Consider `[2H]C([2H])([2H])O[C@H]1CN(c2ncc(C(C)C)c3cc(Nc4ccnc(N5CC[C@@H](O)[C@@](C)(F)C5)n4)ncc23)[C@@H]1C` [Example 108, (3S,4R)-3-fluoro-1-(4-((5-isopropyl-8-((2R,3S)-3-(methoxy-d3)-2-methylazetidin-1-yl)-2,7-naphthyridin-3-yl)amino)pyrimidin-2-yl)-3-methylpiperidin-4-ol], for which the half-inhibitory concentration (IC50) was < 15 nM on EGFR (L858R T790M C797S) and 10 to 20 nM in test [1].

Take `CC(C)c1cnc(N2C[C@H](O)[C@H]2C)c2cnc(Nc3ccnc(N4CC[C@](C)(O)C(F)(F)C4)n3)cc12` (single isomer, unassigned) [Example 171, (S)-3,3-difluoro-1-(4-((8-((2R,3S)-3-hydroxy-2-methylazetidin-1-yl)-5-isopropyl-2,7-naphthyridin-3-yl)amino)pyrimidin-2-yl)-4-methylpiperidin-4-ol or (R)-3,3-difluoro-1-(4-((8-((2R,3S)-3-hydroxy-2-methylazetidin-1-yl)-5-isopropyl-2,7-naphthyridin-3-yl)amino)pyrimidin-2-yl)-4-methylpiperidin-4-ol]: the IC50 at EGFR (L858R T790M C797S) is < 15 nM; in test [1] it was 30 to 50 nM.

Turning to `CC(C)c1cnc(N2C[C@H](n3ccnn3)[C@H]2C)c2cnc(Nc3ccnc(N4CC[C@@](C)(O)[C@@H](F)C4)n3)cc12` [Example 144, (3S,4R)-3-fluoro-1-(4-((5-isopropyl-8-((2R,3S)-2-methyl-3-(1H-1,2,3-triazol-1-yl)azetidin-1-yl)-2,7-naphthyridin-3-yl)amino)pyrimidin-2-yl)-4-methylpiperidin-4-ol], the half-inhibitory concentration (IC50) fell in the range of 15 to 20 nM on EGFR (L858R T790M C797S) and 30 to 50 nM in test [1].

As to `CC(C)c1ccc(C2CN(S(C)(=O)=O)C2)c2cnc(Nc3ccnc(N4CC[C@@H](O)[C@@](C)(F)C4)n3)cc12` [Example 3, (3S,4R)-3-fluoro-1-(4-((5-isopropyl-8-(1-(methylsulfonyl)azetidin-3-yl)isoquinolin-3-yl)amino)pyrimidin-2-yl)-3-methylpiperidin-4-ol], the values for the IC50 (on EGFR (L858R T790M C797S); in test [1]) were < 15 nM and 20 to 30 nM, respectively.

Consider `CCOc1cnc(N2CC[C@@H]2C)c2cnc(Nc3ccnc(N4CC[C@@H](O)[C@@](C)(F)C4)n3)cc12` (single isomer, unassigned) [Example 182, (3S,4R)-1-(4-((5-ethoxy-8-((S)-2-methylazetidin-1-yl)-2,7-naphthyridin-3-yl)amino)pyrimidin-2-yl)-3-fluoro-3-methylpiperidin-4-ol or (3S,4R)-1-(4-((5-ethoxy-8-((R)-2-methylazetidin-1-yl)-2,7-naphthyridin-3-yl)amino)pyrimidin-2-yl)-3-fluoro-3-methylpiperidin-4-ol], for which the results for the half-inhibitory concentration (IC50) (on EGFR (L858R T790M C797S); in test [1]) were 30 to 100 nM and > 50 nM, respectively.

As to `CNCCO[C@@H]1CCN(c2nccc(Nc3cc4c(C(C)C)cnc(N5CC[C@H]5C)c4cn3)n2)C[C@@H]1F` [Example 201, N-(2-((3S,4R)-3-fluoro-4-(2-(methylamino)ethoxy)piperidin-1-yl)pyrimidin-4-yl)-5-isopropyl-8-((R)-2-methylazetidin-1-yl)-2,7-naphthyridin-3-amine], the 50% inhibitory concentration (IC50) on EGFR (L858R T790M C797S) is < 15 nM; in test [1], 10 to 20 nM.

The values are drawn from patent US20240382483A1, “HETEROCYCLIC EGFR INHIBITORS FOR USE IN THE TREATMENT OF CANCER” (Blueprint Medicines Corporation, priority 2021, published 2024).
